Read-outs that look alike come from different tables or passages of the source.
Legend:
[1] = target: T1, S100A9 (Homo sapiens, UniProt P06702); assay: intrinsic Trp88 fluorescence titration; ANS fluorescence titration gave Kd […]; ThT/AFM amyloid inhibition; assay type: binding
T1 construct: native S100A9 expressed in Escherichia coli
T1 sequence (P06702 1-114): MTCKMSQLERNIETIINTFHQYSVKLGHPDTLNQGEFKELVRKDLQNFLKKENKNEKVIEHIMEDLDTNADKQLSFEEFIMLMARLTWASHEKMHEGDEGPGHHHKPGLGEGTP

[2] = target: T1, S100A9; assay: as above; assay type: binding; remark: listed apart in the source

Substance	Kd [1] [µM]	Kd [2] [µM]
Nb10	2.86 ± 0.39	–
TiNb9	–	2.48 ± 0.2

Source: PMC8289188, “Polyoxometalates as Effective Nano-inhibitors of Amyloid Aggregation of Pro-inflammatory S100A9 Protein Involved in Neurodegenerative Diseases” (ACS Applied Materials & Interfaces, 2021)
